Read-outs that look alike come from different tables or passages of the source.
Columns and labels:
[1] = target: T1, MMP-1 (Homo sapiens, UniProt P03956); test: Selectivity against human off-targets: MMP-1; type: biochemical; settings: read-out: Inhibition [%] MMP-1
T1 sequence (P03956 100-469): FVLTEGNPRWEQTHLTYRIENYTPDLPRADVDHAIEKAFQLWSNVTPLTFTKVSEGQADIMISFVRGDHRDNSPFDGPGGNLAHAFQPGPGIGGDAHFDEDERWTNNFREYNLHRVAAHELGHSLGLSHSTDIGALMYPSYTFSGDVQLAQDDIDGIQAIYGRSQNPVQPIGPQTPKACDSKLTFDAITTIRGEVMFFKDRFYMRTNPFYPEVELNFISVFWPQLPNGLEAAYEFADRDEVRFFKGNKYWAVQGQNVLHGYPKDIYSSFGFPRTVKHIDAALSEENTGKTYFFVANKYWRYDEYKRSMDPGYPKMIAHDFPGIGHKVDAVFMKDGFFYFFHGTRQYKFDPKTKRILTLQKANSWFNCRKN
Source text: (§1) The inhibition of zinc-containing human enzymes is described frequently for LasB inhibitors and poses a serious difficulty in the development of selective compounds. Particularly, the inhibition of matrix metalloproteases (MMPs) should be avoided. To further investigate this issue, three derivatives (the compounds of examples 1, 5 and 8) have been tested for their selectivity against several human off-targets, including six MMPs, ADAM17 (TACE), HDAC-3 and HDAC-8 (Table 4). The selectivity of the compounds is particularly high for MMPs and HDACs, whereas the inhibition of ADAM17 was considerably stronger.

[2] = tested on: P. aeruginosa PA14; test: PA14 inhibition (MIC, antibacterial effect); type: cell-based
Procedure: (§2) The compounds of examples 1 and 5 were not toxic against the cell lines HepG2, HEK293 and A549 (Table 5). Additionally, the inhibitory effect against P. aeruginosa PA14 was evaluated to exclude an antibacterial effect of the compounds of the present invention. This is important as it was the aim to target virulence and not viability of the bacteria. […]

[3] = Cytotoxicity HEK293; type: cell-based; settings: human
Procedure: as §2

[4] = target: LasB (Pseudomonas aeruginosa, UniProt Q02RJ6); test: biochemical; set-up: species or system P. aeruginosa
[5] = target: ADAM17 (TACE) (Homo sapiens, UniProt P78536); test: Selectivity against human off-targets: ADAM17 (TACE); type: biochemical
[6] = target: COX-1 (Homo sapiens, UniProt P23219); test: Selectivity against off-targets: COX-1; type: biochemical
[7] = target: T2, MMP-2 (Homo sapiens, UniProt P08253); test: Selectivity against human off-targets: MMP-2; type: biochemical; settings: read-out: Inhibition [%] MMP-2
T2 sequence (P08253 110-660): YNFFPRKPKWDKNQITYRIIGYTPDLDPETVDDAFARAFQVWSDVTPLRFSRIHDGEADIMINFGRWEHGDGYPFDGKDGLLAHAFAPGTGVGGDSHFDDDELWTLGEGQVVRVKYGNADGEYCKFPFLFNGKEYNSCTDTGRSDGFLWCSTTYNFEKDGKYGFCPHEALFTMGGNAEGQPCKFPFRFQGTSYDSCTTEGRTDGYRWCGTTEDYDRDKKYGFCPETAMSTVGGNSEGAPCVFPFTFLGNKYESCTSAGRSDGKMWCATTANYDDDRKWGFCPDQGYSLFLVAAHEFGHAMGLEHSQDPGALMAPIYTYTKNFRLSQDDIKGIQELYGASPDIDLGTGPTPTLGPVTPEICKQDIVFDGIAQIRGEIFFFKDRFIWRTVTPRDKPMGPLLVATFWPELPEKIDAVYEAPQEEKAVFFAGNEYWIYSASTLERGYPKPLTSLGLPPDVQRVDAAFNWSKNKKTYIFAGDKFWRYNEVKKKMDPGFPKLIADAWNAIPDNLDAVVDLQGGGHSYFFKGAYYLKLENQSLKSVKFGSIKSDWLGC
Source text: as §1

[8] = Cytotoxicity A549; type: cell-based; settings: human
Procedure: as §2

[9] = Cytotoxicity HepG2; type: cell-based; settings: human
Procedure: as §2

[10] = target: MMP-3 (Homo sapiens, UniProt P08254); test: Selectivity against human off-targets: MMP-3; type: biochemical; settings: read-out: Inhibition [%] MMP-3
Source text: as §1

[11] = target: MMP-14 (Homo sapiens, UniProt P50281); test: Selectivity against human off-targets: MMP-14; type: biochemical; settings: read-out: Inhibition [%] MMP-14
Source text: as §1

[12] = target: T3, HDAC-8 (Homo sapiens, UniProt Q9BY41); test: Selectivity against human off-targets: HDAC-8; type: biochemical
T3 sequence (Q9BY41 1-377): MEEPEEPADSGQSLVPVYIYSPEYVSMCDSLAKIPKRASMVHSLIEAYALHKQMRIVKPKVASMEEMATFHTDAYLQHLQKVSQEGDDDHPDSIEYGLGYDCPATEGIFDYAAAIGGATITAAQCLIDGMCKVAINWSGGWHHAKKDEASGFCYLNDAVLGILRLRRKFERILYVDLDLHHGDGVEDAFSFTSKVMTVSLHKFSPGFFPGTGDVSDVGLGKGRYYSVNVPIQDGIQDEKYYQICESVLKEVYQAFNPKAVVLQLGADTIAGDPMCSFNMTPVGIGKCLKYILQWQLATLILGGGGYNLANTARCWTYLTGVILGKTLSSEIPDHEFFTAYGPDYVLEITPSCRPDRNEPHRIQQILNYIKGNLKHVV
Source text: as §1

[13] = target: MMP-8 (Homo sapiens, UniProt P22894); test: Selectivity against human off-targets: MMP-8; type: biochemical; settings: read-out: Inhibition [%] MMP-8
Source text: as §1

[14] = target: HDAC-3 (Homo sapiens, UniProt O15379); test: Selectivity against human off-targets: HDAC-3; type: biochemical
Source text: as §1

[15] = target: T4, MMP-7 (Homo sapiens, UniProt P09237); test: Selectivity against human off-targets: MMP-7; type: biochemical; settings: read-out: Inhibition [%] MMP-7
T4 sequence (P09237 95-267): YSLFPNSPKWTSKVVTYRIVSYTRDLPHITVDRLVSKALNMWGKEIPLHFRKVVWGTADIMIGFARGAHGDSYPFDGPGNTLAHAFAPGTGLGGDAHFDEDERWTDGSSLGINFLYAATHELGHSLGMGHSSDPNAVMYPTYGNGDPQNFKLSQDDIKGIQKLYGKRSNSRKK
Source text: as §1

[16] = Pseudomonas aeruginosa, PA14; read-out: MIC PA14

Chain of ADAM17 (TACE) (P78536 215-824): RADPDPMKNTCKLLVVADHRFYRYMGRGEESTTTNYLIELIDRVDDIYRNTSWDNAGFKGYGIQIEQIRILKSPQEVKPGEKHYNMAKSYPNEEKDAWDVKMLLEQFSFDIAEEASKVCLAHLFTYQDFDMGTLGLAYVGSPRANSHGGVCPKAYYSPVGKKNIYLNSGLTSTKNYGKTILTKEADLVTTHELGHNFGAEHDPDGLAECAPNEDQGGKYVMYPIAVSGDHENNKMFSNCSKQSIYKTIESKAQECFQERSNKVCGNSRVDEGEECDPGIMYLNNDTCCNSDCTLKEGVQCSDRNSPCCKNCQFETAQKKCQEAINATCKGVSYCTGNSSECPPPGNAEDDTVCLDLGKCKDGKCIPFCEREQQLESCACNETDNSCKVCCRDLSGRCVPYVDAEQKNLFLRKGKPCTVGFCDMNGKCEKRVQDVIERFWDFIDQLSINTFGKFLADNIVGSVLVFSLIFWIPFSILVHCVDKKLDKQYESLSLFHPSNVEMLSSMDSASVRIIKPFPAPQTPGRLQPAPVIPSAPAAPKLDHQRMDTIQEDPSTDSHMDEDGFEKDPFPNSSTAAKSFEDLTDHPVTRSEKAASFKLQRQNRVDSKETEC
Chain of LasB (Q02RJ6 198-498): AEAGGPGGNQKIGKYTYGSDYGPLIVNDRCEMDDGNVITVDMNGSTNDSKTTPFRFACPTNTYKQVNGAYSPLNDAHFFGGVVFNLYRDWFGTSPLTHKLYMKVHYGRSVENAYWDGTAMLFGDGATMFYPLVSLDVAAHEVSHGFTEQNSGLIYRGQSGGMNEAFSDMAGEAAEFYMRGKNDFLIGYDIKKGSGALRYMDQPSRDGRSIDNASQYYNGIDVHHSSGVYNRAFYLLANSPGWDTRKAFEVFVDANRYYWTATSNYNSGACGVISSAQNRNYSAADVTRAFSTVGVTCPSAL
Chain of MMP-3 (P08254 100-477): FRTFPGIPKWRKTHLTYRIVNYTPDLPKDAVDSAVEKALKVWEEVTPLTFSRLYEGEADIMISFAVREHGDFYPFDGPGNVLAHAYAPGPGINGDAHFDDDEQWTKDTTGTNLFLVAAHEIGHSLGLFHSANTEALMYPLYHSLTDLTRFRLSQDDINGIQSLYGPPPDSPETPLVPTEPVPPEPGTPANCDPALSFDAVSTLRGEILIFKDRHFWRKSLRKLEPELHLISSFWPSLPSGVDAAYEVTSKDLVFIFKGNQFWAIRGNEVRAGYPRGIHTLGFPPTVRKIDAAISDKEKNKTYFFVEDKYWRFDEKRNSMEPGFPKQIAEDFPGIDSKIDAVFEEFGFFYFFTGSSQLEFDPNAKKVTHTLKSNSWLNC
Chain of MMP-8 (P22894 101-467): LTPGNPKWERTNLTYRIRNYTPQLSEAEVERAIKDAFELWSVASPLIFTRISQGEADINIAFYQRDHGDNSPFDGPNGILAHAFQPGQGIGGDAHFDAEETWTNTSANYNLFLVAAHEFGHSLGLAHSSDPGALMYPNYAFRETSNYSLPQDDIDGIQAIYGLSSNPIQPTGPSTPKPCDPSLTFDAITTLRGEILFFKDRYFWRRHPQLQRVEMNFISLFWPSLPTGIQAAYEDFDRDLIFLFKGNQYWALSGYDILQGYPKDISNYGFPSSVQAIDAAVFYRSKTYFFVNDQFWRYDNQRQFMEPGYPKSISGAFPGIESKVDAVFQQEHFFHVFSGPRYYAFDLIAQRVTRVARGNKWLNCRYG
Chain of HDAC-3 (O15379 whole entry): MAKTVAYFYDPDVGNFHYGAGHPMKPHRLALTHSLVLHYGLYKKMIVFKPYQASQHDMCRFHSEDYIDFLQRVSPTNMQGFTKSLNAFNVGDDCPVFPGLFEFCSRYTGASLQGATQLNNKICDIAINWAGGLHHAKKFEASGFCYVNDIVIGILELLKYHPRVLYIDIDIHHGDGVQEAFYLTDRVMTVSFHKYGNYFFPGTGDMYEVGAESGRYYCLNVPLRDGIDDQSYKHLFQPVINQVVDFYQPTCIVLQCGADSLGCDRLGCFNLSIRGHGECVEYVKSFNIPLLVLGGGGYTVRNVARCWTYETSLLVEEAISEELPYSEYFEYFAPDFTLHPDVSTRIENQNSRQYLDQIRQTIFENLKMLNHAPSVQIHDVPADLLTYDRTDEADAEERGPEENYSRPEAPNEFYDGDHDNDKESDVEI
Chain of HDAC-3 (Q9Y618 395-489 partner limits assumed): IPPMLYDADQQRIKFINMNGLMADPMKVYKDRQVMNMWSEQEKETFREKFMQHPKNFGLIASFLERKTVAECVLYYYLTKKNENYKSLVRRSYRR
Chain of COX-1 (P23219 24-599): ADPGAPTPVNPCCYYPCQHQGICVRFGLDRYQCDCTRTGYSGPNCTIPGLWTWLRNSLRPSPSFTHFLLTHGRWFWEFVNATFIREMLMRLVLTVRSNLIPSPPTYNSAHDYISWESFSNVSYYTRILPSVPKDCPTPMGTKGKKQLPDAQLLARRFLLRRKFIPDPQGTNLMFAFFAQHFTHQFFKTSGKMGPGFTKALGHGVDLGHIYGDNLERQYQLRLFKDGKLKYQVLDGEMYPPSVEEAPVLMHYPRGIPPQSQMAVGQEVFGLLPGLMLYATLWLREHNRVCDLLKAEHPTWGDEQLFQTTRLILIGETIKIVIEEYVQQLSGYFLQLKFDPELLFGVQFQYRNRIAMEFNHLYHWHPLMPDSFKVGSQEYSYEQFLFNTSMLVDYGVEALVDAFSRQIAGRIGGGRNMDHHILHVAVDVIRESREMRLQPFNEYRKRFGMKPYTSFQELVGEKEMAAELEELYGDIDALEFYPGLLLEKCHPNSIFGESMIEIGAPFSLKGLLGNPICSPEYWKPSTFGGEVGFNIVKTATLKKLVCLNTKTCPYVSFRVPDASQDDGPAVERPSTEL

## CC(C)CC(C(=O)N[C@H](c1cn(-c2ccc(Cl)c(Cl)c2)nn1)C(C)C)P(=O)(O)O (mixture of isomers) [Example 170, (1-(((S)-1-(1-(3,4-dichlorophenyl)-1H-1,2,3-triazol-4-yl)-2-methylpropyl)amino)-4-methyl-1-oxopentan-2-yl)phosphonic acid]
[1]; at 100 μM
  inhibition at 100 µM: 11%
[2]; [16]
  MIC: > 100 µM
[3]; HEK293
  IC50: > 100 µM
[4]; IC50 against LasB (Table 16), heteropentacycles and benzannulated heteropentacycles
  IC50: 60000 ± 3000 nM
[5]; at 100 μM
  inhibition at 100 µM: < 10%
[6]
  inhibition at 100 µM: < 10%
[7]; at 100 μM
  inhibition at 100 µM: < 10%
[8]; A549
  IC50: > 100 µM
[9]; HepG2
  IC50: > 100 µM
[10]; at 100 μM
  inhibition at 100 µM: < 10%

## O=C(Nc1ccccc1)C(S)Cc1ccccc1 (racemic) [Example 1, 2-Mercapto-N,3-diphenylpropanamide]
[11]
  inhibition at 100 µM: < 10%
[1]
  inhibition at 100 µM: < 10%
[12]; read-out: IC50 HDAC-8
  IC50: > 100 µM
[2]; Pseudomonas aeruginosa, PA14, read-out: MIC PA14
  MIC: > 100 µM
[3]; HEK293
  IC50: > 100 µM
[4]; IC50 against LasB
  IC50: 1200 ± 100 nM
[5]; read-out: IC50 ADAM17 (TACE)
  IC50: 2200 ± 100 nM
[13]
  inhibition at 100 µM: 34 ± 11%
[7]
  inhibition at 100 µM: < 10%
[8]; A549
  IC50: > 100 µM
[9]; HepG2
  IC50: > 100 µM
[14]; read-out: IC50 HDAC-3
  IC50: > 100 µM
[10]
  inhibition at 100 µM: < 10%
[15]
  inhibition at 100 µM: < 10%

## Cc1ccc(NC(=O)C(CC(C)C)P(=O)(O)O)cc1 (centres unmarked) [Example 63, (4-Methyl-1-oxo-1-(p-tolylamino)pentan-2-yl)phosphonic acid]
[11]; at 100 μM
  inhibition at 100 µM: 12 ± 7%
[1]; at 100 μM
  inhibition at 100 µM: < 10%
[12]
  IC50: > 100 µM
[2]; [16]
  MIC: > 100 µM
[3]; HEK293 cells
  IC50: > 100 µM
[4]; IC50 against LasB
  IC50: 51 ± 7 nM
[5]
  IC50: > 100000 nM
[13]; at 100 μM
  inhibition at 100 µM: 10%
[7]; at 100 μM
  inhibition at 100 µM: < 10%
[8]; A549 cells
  IC50: > 100 µM
[9]; HepG2 cells
  IC50: > 100 µM
[14]
  IC50: > 100 µM
[10]; at 100 μM
  inhibition at 100 µM: < 10%
[15]; at 100 μM
  inhibition at 100 µM: < 10%

Reference: patent publication US20230321123A1, “INHIBITORS OF PSEUDOMONAS AERUGINOSA VIRULENCE FACTOR LasB” (Helmholtz-Zentrum Für Infektionsforschung GmbH, priority 2020, published 2023)
